Source: PMC6535779, “A Specific, Glycomimetic Langerin Ligand for Human Langerhans Cell Targeting” (ACS Central Science, 2019)

Legend:
[1] = molecular target: T1, Langerin extracellular domain (ECD) (Homo sapiens, UniProt Q9UJ71); assay: 19F R2-filtered NMR reporter displacement assay with Langerin; assay type: binding; conditions: calculated utilizing the KI value determined for 21
T1 construct: the trimeric Langerin extracellular domain (ECD) was expressed insolubly in E; made in house
Experimental: (§1) Receptor Expression and Purification
General remarks. Codon-optimized genes for the expression of Langerin and DC-SIGN in E. coli were purchased from GenScript and Life Technologies, respectively. All growth media or chemicals used for receptor expression and purification were purchased from Carl Roth if not stated otherwise.
Langerin extracellular domain. Expression and purification were conducted as previously published14. Briefly, the trimeric Langerin extracellular domain (ECD) was expressed insolubly in E. coli BL21* (DE3) (Invitrogen). Following enzymatic cell lysis, inclusion bodies were harvested and subsequently solubilized. The sample was centrifuged and the Langerin ECD was refolded overnight via rapid dilution. Next, the sample was dialyzed overnight, centrifuged and purified via mannan-agarose affinity chromatography (Sigma Aldrich). For 19F R2-filtered NMR and lipid-enzyme-linked lectin assay (Lipid-ELLA) experiments, the buffer was exchanged to 25 mM Tris with 150 mM NaCl and 5 mM CaCl2 at pH 7.8 using 7 kDa size-exclusion desalting columns (Thermo Scientific). For […]
D2O, 150 mM NaCl and 5 mM CaCl2 at pH 7. The concentration of Langerin ECD was determined via UV spectroscopy (A280, 0.1% = 2.45). Purity and monodispersity of Langerin ECD samples were analyzed via SDS PAGE and DLS. […]
(§2) General remarks. 19F R2-filtered NMR experiments were conducted on a PremiumCompact 600 MHz spectrometer (Agilent). Spectra were processed in MestReNova and data analysis was performed with OriginPro 13, 15. Experiments with the Langerin ECD were performed at a receptor concentration of 50 μM in 25 mM Tris with 10% D2O, 150 mM NaCl and 5 mM CaCl2 at pH 7.8 and 25° C. […]
10% D2O, 150 mM NaCl and 5 mM CaCl2 at pH 7.0 and 25°C. TFA served as an internal reference at a concentration of 50 μM. Apparent relaxation rates R2,obs for the reporter ligand were determined using the CPMG pulse sequence as previously published3-5. […]
KI determination. KI values were determined as previously published for Langerin3. Briefly, titration experiments were conducted at a concentration of 0.1 mM of reporter ligand 24 at five competitor concentrations [I]T. Samples were prepared via serial dilution. For the acids GlcNS, GlcNAc-6-OS and GlcNS-6-OS the pH values were monitored and adjusted to 7.8 if necessary.
General remarks. 15N HSQC NMR experiments were conducted on an Ascend 700 MHz spectrometer (Bruker)16. Spectra were processed in NMRPipe17. Data analysis was performed using CCPN Analysis, MatLab and OriginPro15, 18-19. Experiments with the Langerin CRD were performed at a receptor concentration of 100 μM in 25 mM HEPES with 10% D 2O, 150 mM NaCl and 5 mM CaCl2 at pH 7.8 and 25° C. DSS-d6 served as an internal reference at a concentration of 100 μM. Spectra were referenced via the internal spectrometer reference. Spectra were acquired with 128 increments and 32 scans per increments for 150 μl samples in 3 mm sample tubes. The relaxation delay d1 was set to 1.4 s and the acquisition time tacq was set to 100 ms. The W5 Watergate pulse sequence was used for solvent suppression20. The used resonance assignment for the Langerin CRD has been published […]
KD determination. KD values were determined in titration experiments at six ligand concentrations [L]T. Samples were prepared via serial dilution. Chemical shift perturbations CSPs for Langerin CRD resonances in the fast or fast-to-intermediate exchange regime observed upon titration with ligand were calculated via Equation 121.

DC-SIGN CRD = molecular target: T2, DC-SIGN CRD (Homo sapiens, UniProt Q9NNX6); assay: 19F R2-filtered NMR reporter displacement assay with DC-SIGN; assay type: binding
T2 construct: with the DC-SIGN CRD were performed at a receptor concentration of 50 μM; made in house
T2 sequence (Q9NNX6 263-378 limits assumed): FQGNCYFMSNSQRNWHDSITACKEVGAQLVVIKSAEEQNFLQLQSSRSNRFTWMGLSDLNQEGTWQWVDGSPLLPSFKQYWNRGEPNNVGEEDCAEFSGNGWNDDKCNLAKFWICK
Excerpt: Figure S7. 19F R2-filtered NMR assay development with DC-SIGN. […]
substantial line broadeni ng. This phenomenon was utilized to develop the 19F R2-filtered NMR reporter displacement assay following the procedure previously published for Langerin 3. The spectrum in absence of DC -SIGN is processed with an exponential apodization function at 1.8 Hz. b. The interaction between 24 and DC-SIGN was quantified via the transversal relaxation rate R2,obs using the CPMG pulse sequence4-5. Representative decay curves in the presence of DC-SIGN are shown. c. The Ca2+-dependency of the interaction was validated via addition of EDTA. The R2,obs value in absence of DC-SIGN was determined from four independent experiments. The standard error for the experiments in presence of DC-SIGN and EDTA is derived directly from the fitting procedure. d. Relaxation dispersion experiments for 24 in presence of DC-SIGN indicate at negligible exchange contribution R2,ex at a νCPMG value of 500 Hz. In contrast to Langerin, a considerable exchange contribution is observed a lower νCPMG values. e. A representative binding isotherm for the affinity determination for 24 is shown. The KD value was determined from three independent titrations. The obtained K D and additional parameters from the fitting procedure are given in Tab le S3.
(1 picture or pasted object on this page, not shown here)
as §1
General remarks. Codon-optimized genes for the expression of Langerin and DC-SIGN in E. coli were purchased from GenScript and Life Technologies, respectively. All growth media or chemicals used for receptor expression and purification were purchased from Carl Roth if not stated otherwise. […]
Langerin and DC-SIGN carbohydrate recognition domain. Expression and purification were conducted as previously published14. Briefly, the monomeric 15N-labeled Langerin and DC-SIGN carbohydrate recognition domains (CRDs) were expressed insolubly in E. coli BL21* (DE3) (Invitrogen). Following enzymatic cell lysis, inclusion bodies were harvested and subsequently solubilized. The sample was centrifuged and the Langerin and DC-SIGN CRDs were refolded overnight via rapid dilution. Next, the sample was dialyzed overnight, centrifuged and purified via StrepTactin affinity chromatography (Iba). After an additional dialysis step overnight, the sample was centrifuged and the buffer was exchanged to 25 mM HEPES with 150 mM NaCl at pH 7.0 using 7 kDa size-exclusion desalting columns (Thermo Scientific) for 19F R2-filtered and 15N HSQC NMR experiments. The concentration of Langerin and DC -SIGN CRDs was determined via UV spectroscopy (A280, 0.1% = 3.19 and A280, 0.1% = 2.98). Purity and monodispersity of Langerin and DC - SIGN CRD samples were analyzed via SDS PAGE and DLS.
as §2, with “C. Experiments” for “C.”
with the DC-SIGN CRD were performed at a receptor concentration of 50 μM in 25 mM HEPES with 10% D2O, 150 mM NaCl and 5 mM CaCl2 at pH 7.0 and 25°C. TFA served as an internal reference at a concentration of 50 μM. Apparent relaxation rates R2,obs for the reporter ligand were determined using the CPMG pulse sequence as previously published3-5.
Assay development for DC-SIGN. The 19F R2-filtered NMR reporter displacement assay for DC-SIGN was developed following the procedure previously published for Langerin3. Briefly, the KD value and the relaxation rate in bound state R2,b were determined at five concentrations [L]T of reporter ligand 24 in three independent titration experiments. Samples were prepared via serial dilution. The addition of 10 mM EDTA served to validate the Ca2+-dependency of the interaction between DC-SIGN and the reporter ligand. […]

[2] = molecular target: T1, Langerin extracellular domain (ECD); design: method as in PMID 27458873; conditions: 19F R2-filtered NMR; previously published value; cited from earlier work
Langerin CRD = molecular target: T3, Langerin CRD (Homo sapiens, UniProt Q9UJ71); design: method as in PMID 27458873; conditions: previously published value; cited from earlier work
T3 construct: Experiments with the Langerin CRD were performed at; made in house
T3 sequence (Q9UJ71 202-320 limits assumed): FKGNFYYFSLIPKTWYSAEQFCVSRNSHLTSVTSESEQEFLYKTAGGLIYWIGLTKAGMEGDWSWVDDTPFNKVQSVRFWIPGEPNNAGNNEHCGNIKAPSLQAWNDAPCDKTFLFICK

T1 sequence (Q9UJ71 65-328 limits assumed): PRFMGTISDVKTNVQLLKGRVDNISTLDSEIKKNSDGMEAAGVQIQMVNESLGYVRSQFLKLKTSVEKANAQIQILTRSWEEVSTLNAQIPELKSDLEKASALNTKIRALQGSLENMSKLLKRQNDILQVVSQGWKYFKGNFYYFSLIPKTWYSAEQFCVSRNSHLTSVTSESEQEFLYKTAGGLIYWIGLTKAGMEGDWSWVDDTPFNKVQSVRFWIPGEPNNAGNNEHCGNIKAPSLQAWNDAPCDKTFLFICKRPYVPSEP

For `OC[C@H]1OC(O)[C@@H](O)[C@@H](O)[C@@H]1O` (some centres unmarked) [Man, mannose], the “Relative potency, Langerin” value [1] was 2.2, the Ki (DC-SIGN CRD; 19F R2-filtered NMR, DC-SIGN CRD, pH 7.0, 25 °C) was 3 ± 0.3 mM and the specificity (DC-SIGN CRD; Table 1, Langerin against DC-SIGN, from KI values) was 0.67. For the same compound, the Ki [2] was 4.5 ± 0.5 mM and the Kd (Langerin CRD) was 6.5 ± 0.2 mM.
